Results from US10123969B2, “Osmotic enhancement of drug/therapeutic delivery to the brain following infusion or injection into the cerebrospinal fluid” (Wisconsin Alumni Research Foundation, priority 2015, dated 2018).
Values after ≈ are worked out from the molar mass of the structure shown. Values joined by “and” are separate entries in the source; they are usually repeats but may differ in a detail not shown here. Identical values can stand only once. “Also recorded” adds a separate entry of the source. Like-named read-outs stand apart in the source and are kept apart here. Each block holds one compound with its values, some of them ahead of it.

Legend:
[1] = cited from earlier work
[2] = Perivascular counting of IgG signal in brain sections after intracisternal infusion with or without mannitol (ex vivo fluorescence, ImageJ); set-up: species or system rat
Procedure: Female Sprague-Dawley rats (180-240 g) were anesthetized to a surgical plane of anesthesia using 1.3 g/kg intraperitoneal urethane (boostered to effect), tracheotomized, and placed in a stereotaxic frame (Stoelting). Atropine (0.1 mg/kg every two hours) was given subcutaneously to reduce fluid secretion in lungs. An incision was made on the back of the neck and the muscles were dissected from the occipital bone to expose the atlanto-occipital membrane, which was retracted to reveal the dura overlying the cisterna magna. A custom cannula (˜1 cm long) made of 33 GA polyether ether ketone (PEEK, Plastics One) was connected to a Hamilton syringe controlled by an infusion pump (Quintessential Stereotaxic Injector, Stoelting) via polyethylene-10 tubing (Solomon Scientific). The tubing was prefilled with infusate (i.e., antibody solution with or without mannitol), the dura punctured with a dental needle, and the PEEK cannula immediately inserted at a 60-degree angle from the horizontal, advanced 1 mm into the cisterna magna, and sealed with cyanoacrylate.
For ex vivo fluorescence, AlexaFluor488 goat-anti-rabbit IgG in PBS (as provided) or in PBS with mannitol (described below) was infused at 1.6 uL/min for 50 minutes (80 uL total), a rate that is expected to be physiological as it is approximately half the CSF production rate and has been shown not to increase intracranial pressure in rats (Yang et al. J Trans Med 2013). The abdominal aorta was then cannulated and thirty minutes after the infusion completed the animal was perfused with ˜50 mL ice cold 0.01 M PBS followed by ˜450 mL 4% paraformaldehyde in 0.1 M phosphate buffer following a blood draw. The brain was removed and placed in 4% paraformaldehyde or phosphate buffered saline overnight, then sliced into 100 micrometer sections using a vibratome. Sections were imaged on an Olympus MVX10 using an Orca-flash 2.8 CMOS camera (Hamamatsu), a Lumen Dynamics X-Cite 120Q illuminator and an appropriate filter set (Chroma, U-M49002XL).
(§1) AlexaFluor 488 goat-anti-rabbit IgG was prepared in 0.27 M or 0.75 M mannitol in 0.01M PBS using 0.5 mL Amicon Ultra 100 kDa molecular weight cutoff centrifugal filters for buffer exchange. IgG was added to the filter and washed/spun from 0.5 mL three times with 0.27 M or 0.75 M mannitol solution (osmolality 507 mOsm/kg and 988 mOsm/kg, respectively); each spin was 10 minutes at 14,000 g. Recovery spin was 2 minutes at 1,000 g. Concentration of IgG protein (absorbance at 280 nm) was measured using a NanoDrop 2000 (Thermo Fisher), and after concentration/buffer exchange in mannitol the protein concentration was diluted to the same concentration so animals received identical amounts of IgG whether administered in provided buffer or buffer with mannitol.
To quantify perivascular signal between treatments, images were opened in ImageJ/Fiji, thresholded to eliminate background, and the Analyze Particles command was used to count and outline ‘particles’, or perivascular signal, with no restrictions on size or circularity, as well as providing additional information such as circularity, area, and average size.

[3] = Fluorescence imaging of spinal cord slices after intrathecal infusion of IgG with or without mannitol; format: in vivo, rat
Procedure: FIG. 8 (A-C). […] The spinal cord has a simple structure—an outer spinal white matter that has few blood vessels and an inner spinal gray matter which has a dense network of blood vessels.
Female Sprague-Dawley rats (180-240 g) were anesthetized to a surgical plane of anesthesia using 1.3 g/kg intraperitoneal urethane (boostered to effect), tracheotomized, and placed in a stereotaxic frame (Stoelting). Atropine (0.1 mg/kg every two hours) was given subcutaneously to reduce fluid secretion in lungs. […]
For ex vivo fluorescence, AlexaFluor488 goat-anti-rabbit IgG in PBS (as provided) or in PBS with mannitol (described below) was infused at 1.6 uL/min for 50 minutes (80 uL total), a rate that is expected to be physiological as it is approximately half the CSF production rate and has been shown not to increase intracranial pressure in rats (Yang et al. J Trans Med 2013). […]
as §1, with “IgG was added to the filter and washed/spun from 0.5 mL three times with 0.27 M or 0.75 M mannitol solution (osmolality 507 mOsm/kg and 988 mOsm/kg, respectively); each spin was 10 minutes at 14,000 g. Recovery spin was 2 minutes at 1,000 g.” left out

[4] = hypertonic solutions, animals (Speck et al. 1988); cited from earlier work
[5] = Confocal imaging of cerebral internal carotid artery: IgG access to smooth muscle basement membrane; format: in vivo, rat
Procedure: as §1

[6] = Osmolality of mannitol infusion solutions; format: physicochemical
Procedure: as §1
We have measured the osmolality of both the 0.27 M mannitol (507-564 mOsm/kg) and 0.75 M mannitol (988-1126 mOsm/kg) solutions.

SMILES: C[C@H](N)C(=O)O [L-Alanine]
solubility ([1]; at 25 C (Needham et al. 1971)): 1670 mM (≈ 149 mg/mL)

SMILES: O=C[C@H](O)[C@@H](O)[C@H](O)CO [Xylose]
solubility ([1]; Merck Index, temperature not given): 8320 mM (≈ 1250 mg/mL) | solubility ([1]; at 25 C (Gabas et al. 1988)): 3660 mM (≈ 549 mg/mL)

SMILES: OC[C@@H](O)[C@@H](O)[C@H](O)[C@@H](O)CO [Sorbitol]
solubility in water ([1]; Merck Index): up to 83%

SMILES: CC(C)[C@H](N)C(=O)O [L-Valine]
solubility ([1]; at 25 C (Needham et al. 1971)): 514 mM (≈ 60.2 mg/mL)

brain distribution of IgG via the perivascular spaces (in words) ([2]; 0.75 M mannitol co-infused with labeled 150 kDa IgG): dramatically greater brain distribution | number of vessels accessed by IgG (in words) ([2]; 0.75 M mannitol co-infusion vs 0.27 M mannitol co-infusion or IgG alone): significantly increased | number of vessels with perivascular signal (in words) ([2]; IgG with 0.75 M mannitol co-infusion vs single domain antibody without mannitol): significantly higher number of vessels | number of IgG perivascular profiles in spinal gray (in words) ([3]; 0.27 M mannitol co-infusion vs IgG alone): slight increase | number of perivascular spaces with IgG signal in spinal cord (in words) ([3]; 0.75 M mannitol co-infusion): striking increase | osmolality ([6]; 0.27 M mannitol solution): 507 mOsm/kg and 507-564 mOsm/kg | osmolality ([6]; 0.75 M mannitol solution): 988 mOsm/kg and 988-1126 mOsm/kg
SMILES: OC[C@@H](O)[C@@H](O)[C@H](O)[C@H](O)CO [mannitol]
solubility ([1]; at 40 C (just above body temperature)): 2000 mM (≈ 364 mg/mL) | solubility ([1]; at 40 C (just above body temperature), listed as Mannitol): 1900 to 1940 mM | perivascular access of IgG (in words) ([2]; 0.27 M mannitol co-infusion vs IgG alone (controls)): improved access; also recorded: slight increase | dose dependence of perivascular access of IgG ([2]; mannitol between 0.27 M and 0.75 M): dose-dependent manner; also recorded: dose-dependent increase | tolerability of intrathecal infusion [4]: well tolerated | IgG access to the basement membrane of the smooth muscle layer (in words) ([5]; 0.27 M mannitol co-infusion vs IgG without mannitol): modestly increased; also recorded: no visible improvement | IgG access to the basement membrane of the smooth muscle layer (in words) ([5]; 0.75 M mannitol co-infusion vs IgG without mannitol): strikingly increased; also recorded: markedly improved; also recorded: noticeably increased

SMILES: N[C@@H](Cc1ccccc1)C(=O)O [L-Phenylalanine]
solubility ([1]; at 25 C (Needham et al. 1971)): 208 mM (≈ 34.4 mg/mL)

SMILES: OC[C@@H](O)[C@@H](O[C@H]1O[C@H](CO)[C@@H](O)[C@H](O)[C@H]1O)[C@H](O)[C@@H](O)CO [Maltitol]
solubility ([1]; at 37 C (body temperature)): 5810 mM (≈ 2000 mg/mL)
